Experiments:
Test in all cases: KinomeScan profiling
Assay type in all cases: binding
[1] = biological target: T1, MST1 (Homo sapiens, UniProt Q13043); conditions: MST1, 1 μM; read-out: % control
T1 sequence (Q13043 1-487): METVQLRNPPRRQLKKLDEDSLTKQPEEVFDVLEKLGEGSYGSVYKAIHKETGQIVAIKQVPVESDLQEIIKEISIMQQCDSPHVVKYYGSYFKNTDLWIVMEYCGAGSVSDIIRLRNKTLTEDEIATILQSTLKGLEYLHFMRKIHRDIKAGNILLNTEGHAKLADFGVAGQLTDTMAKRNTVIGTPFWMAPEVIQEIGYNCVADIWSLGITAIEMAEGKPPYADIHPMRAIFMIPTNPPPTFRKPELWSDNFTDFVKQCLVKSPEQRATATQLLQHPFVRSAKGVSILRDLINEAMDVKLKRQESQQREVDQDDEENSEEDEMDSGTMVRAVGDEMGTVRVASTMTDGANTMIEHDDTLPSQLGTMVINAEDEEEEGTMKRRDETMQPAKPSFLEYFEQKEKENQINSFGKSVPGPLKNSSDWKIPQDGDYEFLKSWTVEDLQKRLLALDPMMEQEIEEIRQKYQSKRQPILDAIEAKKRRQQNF
Procedure, shortened: (§1)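 Compounds were screened at 1 μM in DMSO across a 468-kinase KinomeScan panel. Binding was expressed as % control, scaled between a positive control (0%) and DMSO (100%) using luminescence signal. A value under 35% counted as active.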

[2] = biological target: T2, ACVR2B (Homo sapiens, UniProt Q13705); conditions: read-out: % control
T2 construct: purchased KinomeScan®
Procedure, shortened: as §1

[3] = biological target: WNK4 (Homo sapiens, UniProt Q96J92); conditions: WNK4, 1 μM; read-out: % control
Procedure, shortened: as §1

[4] = biological target: T3, ABL2 (Homo sapiens, UniProt P42684); conditions: ABL2, 1 μM; read-out: % control
T3 construct: purchased KinomeScan®
Procedure, shortened: as §1

[5] = biological target: T4, ABL1(Q252H)-nonphosphorylated (Homo sapiens, UniProt P00519, Q252H); conditions: read-out: % control
T4 construct: purchased KinomeScan®
Procedure, shortened: as §1

[6] = biological target: T5, ABL1(F317L)-nonphosphorylated (Homo sapiens, UniProt P00519, F317L); conditions: read-out: % control
T5 construct: purchased KinomeScan®
Procedure, shortened: as §1

[7] = biological target: T6, GCN2(Kin.Dom.2, S808G) (Homo sapiens, UniProt Q9P2K8, S808G); conditions: read-out: % control
T6 construct: GCN2(Kin.Dom.2, S808G)
T6 sequence (Q9P2K8 590-1001 S808G limits assumed): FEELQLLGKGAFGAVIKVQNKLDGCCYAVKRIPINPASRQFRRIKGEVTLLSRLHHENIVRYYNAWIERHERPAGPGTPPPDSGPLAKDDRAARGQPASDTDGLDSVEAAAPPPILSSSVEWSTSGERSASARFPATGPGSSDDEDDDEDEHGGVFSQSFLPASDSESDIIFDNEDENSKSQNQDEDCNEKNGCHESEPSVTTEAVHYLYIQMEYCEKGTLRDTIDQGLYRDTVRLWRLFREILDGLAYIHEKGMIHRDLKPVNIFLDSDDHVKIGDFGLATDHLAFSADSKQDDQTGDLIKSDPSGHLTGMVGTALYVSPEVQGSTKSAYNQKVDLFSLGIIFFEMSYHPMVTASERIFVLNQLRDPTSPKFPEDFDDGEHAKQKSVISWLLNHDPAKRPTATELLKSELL
Procedure, shortened: as §1

[8] = biological target: FLT1 (Homo sapiens, UniProt P17948); conditions: FLT1, 1 μM; read-out: % control
Procedure, shortened: as §1

[9] = biological target: T7, PIK3CA(I800L) (Homo sapiens, UniProt P42336, I800L); conditions: read-out: % control
T7 construct: purchased KinomeScan® (panel service)
Procedure, shortened: as §1

[10] = biological target: T8, INSRR (Homo sapiens, UniProt P14616); conditions: read-out: % control
T8 construct: purchased KinomeScan®
Procedure, shortened: as §1

[11] = biological target: CDK2 (Homo sapiens, UniProt P24941); conditions: CDK2, 1 μM; read-out: % control
Procedure, shortened: as §1

[12] = biological target: NEK6 (Homo sapiens, UniProt Q9HC98); conditions: NEK6, 1 μM; read-out: % control
Procedure, shortened: as §1

[13] = biological target: EIF2AK1 (Homo sapiens, UniProt Q9BQI3); conditions: EIF2AK1, 1 μM; read-out: % control
Procedure, shortened: as §1

[14] = biological target: CAMK1G (Homo sapiens, UniProt Q96NX5); conditions: read-out: % control
Procedure, shortened: as §1

[15] = biological target: T9, NEK3 (Homo sapiens, UniProt P51956); conditions: NEK3, 1 μM; read-out: % control
T9 sequence (P51956 1-506): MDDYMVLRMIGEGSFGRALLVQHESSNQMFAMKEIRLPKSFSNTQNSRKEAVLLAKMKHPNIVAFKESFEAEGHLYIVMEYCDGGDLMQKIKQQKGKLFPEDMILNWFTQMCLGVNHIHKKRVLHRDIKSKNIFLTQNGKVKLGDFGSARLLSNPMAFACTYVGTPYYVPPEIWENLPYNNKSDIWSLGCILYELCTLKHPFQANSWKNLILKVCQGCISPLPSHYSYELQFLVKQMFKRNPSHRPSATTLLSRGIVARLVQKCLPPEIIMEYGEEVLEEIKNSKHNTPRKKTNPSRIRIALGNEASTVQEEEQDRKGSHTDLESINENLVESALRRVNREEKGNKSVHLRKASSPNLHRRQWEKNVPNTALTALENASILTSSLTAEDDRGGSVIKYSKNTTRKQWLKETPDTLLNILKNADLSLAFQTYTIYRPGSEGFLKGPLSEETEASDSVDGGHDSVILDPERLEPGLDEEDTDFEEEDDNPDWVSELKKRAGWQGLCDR
Procedure, shortened: as §1

[16] = biological target: FGFR2 (Homo sapiens, UniProt P21802); conditions: FGFR2, 1 μM; read-out: % control
Procedure, shortened: as §1

[17] = biological target: DAPK2 (Homo sapiens, UniProt Q9UIK4); conditions: DAPK2, 1 μM; read-out: % control
Procedure, shortened: as §1

Chain of CAMK1G (Q96NX5 whole entry): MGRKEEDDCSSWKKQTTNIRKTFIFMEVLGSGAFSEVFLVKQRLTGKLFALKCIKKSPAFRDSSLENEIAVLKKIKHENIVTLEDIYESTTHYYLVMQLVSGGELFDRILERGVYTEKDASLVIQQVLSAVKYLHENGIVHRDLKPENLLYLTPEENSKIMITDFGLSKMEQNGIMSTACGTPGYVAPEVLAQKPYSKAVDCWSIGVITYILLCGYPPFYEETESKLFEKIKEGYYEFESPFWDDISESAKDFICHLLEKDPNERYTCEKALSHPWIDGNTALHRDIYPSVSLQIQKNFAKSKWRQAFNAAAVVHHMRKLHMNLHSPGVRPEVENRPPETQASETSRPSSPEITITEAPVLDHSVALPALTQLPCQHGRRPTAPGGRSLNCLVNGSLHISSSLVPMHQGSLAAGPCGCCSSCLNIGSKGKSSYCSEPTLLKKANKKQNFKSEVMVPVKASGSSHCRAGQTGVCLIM
Chain of DAPK2 (Q9UIK4 whole entry): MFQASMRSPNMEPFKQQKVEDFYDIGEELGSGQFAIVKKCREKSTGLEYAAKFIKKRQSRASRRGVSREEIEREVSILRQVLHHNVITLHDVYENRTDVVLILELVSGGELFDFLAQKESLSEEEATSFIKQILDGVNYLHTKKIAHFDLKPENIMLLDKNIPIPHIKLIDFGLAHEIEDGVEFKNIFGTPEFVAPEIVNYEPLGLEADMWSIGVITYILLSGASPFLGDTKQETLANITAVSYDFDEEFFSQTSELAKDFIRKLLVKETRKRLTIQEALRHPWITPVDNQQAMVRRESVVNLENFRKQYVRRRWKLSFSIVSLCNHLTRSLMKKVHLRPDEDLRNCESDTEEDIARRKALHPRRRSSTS
Chain of NEK6 (Q9HC98 whole entry): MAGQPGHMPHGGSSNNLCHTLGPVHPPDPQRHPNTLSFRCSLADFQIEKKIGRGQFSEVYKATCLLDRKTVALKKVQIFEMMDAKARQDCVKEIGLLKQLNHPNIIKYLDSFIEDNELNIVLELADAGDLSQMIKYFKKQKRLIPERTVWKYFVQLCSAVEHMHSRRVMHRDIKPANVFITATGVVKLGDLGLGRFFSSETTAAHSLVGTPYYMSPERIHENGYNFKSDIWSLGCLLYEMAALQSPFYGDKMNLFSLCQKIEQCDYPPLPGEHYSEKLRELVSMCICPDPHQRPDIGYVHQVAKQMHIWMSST
Chain of WNK4 (Q96J92 whole entry): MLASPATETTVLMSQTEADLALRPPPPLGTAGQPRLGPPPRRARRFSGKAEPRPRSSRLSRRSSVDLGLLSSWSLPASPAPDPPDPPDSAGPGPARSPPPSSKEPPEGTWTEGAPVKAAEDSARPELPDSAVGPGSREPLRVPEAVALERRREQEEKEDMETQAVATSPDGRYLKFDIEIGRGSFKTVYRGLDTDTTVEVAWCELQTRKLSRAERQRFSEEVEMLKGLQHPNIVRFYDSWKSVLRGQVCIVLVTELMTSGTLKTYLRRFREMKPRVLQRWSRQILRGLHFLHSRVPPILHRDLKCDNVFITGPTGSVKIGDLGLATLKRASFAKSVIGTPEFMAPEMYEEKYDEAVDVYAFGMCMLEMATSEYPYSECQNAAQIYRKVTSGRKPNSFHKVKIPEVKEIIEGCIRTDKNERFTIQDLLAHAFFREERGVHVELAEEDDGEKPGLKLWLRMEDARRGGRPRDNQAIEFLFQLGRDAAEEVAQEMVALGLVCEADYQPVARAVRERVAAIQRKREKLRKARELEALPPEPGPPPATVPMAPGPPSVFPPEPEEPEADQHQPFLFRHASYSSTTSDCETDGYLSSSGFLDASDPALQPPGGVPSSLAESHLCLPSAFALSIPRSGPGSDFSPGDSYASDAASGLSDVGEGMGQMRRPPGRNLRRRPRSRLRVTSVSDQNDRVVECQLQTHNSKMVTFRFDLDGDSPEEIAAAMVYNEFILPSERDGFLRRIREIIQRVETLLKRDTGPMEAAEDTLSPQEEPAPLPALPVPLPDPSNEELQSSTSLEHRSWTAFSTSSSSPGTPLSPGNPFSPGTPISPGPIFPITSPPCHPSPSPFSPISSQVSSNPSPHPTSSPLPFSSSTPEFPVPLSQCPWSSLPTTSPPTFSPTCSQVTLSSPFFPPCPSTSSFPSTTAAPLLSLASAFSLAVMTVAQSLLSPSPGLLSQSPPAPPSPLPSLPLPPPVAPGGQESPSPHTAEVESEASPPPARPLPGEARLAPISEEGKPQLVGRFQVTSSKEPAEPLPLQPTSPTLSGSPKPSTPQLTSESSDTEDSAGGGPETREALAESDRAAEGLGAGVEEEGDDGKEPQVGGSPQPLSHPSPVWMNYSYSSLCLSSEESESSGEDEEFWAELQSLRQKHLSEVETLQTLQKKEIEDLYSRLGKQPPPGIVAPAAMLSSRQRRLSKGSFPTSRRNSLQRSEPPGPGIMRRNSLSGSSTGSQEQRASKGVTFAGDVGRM
Chain of FLT1 (P17948 27-1338): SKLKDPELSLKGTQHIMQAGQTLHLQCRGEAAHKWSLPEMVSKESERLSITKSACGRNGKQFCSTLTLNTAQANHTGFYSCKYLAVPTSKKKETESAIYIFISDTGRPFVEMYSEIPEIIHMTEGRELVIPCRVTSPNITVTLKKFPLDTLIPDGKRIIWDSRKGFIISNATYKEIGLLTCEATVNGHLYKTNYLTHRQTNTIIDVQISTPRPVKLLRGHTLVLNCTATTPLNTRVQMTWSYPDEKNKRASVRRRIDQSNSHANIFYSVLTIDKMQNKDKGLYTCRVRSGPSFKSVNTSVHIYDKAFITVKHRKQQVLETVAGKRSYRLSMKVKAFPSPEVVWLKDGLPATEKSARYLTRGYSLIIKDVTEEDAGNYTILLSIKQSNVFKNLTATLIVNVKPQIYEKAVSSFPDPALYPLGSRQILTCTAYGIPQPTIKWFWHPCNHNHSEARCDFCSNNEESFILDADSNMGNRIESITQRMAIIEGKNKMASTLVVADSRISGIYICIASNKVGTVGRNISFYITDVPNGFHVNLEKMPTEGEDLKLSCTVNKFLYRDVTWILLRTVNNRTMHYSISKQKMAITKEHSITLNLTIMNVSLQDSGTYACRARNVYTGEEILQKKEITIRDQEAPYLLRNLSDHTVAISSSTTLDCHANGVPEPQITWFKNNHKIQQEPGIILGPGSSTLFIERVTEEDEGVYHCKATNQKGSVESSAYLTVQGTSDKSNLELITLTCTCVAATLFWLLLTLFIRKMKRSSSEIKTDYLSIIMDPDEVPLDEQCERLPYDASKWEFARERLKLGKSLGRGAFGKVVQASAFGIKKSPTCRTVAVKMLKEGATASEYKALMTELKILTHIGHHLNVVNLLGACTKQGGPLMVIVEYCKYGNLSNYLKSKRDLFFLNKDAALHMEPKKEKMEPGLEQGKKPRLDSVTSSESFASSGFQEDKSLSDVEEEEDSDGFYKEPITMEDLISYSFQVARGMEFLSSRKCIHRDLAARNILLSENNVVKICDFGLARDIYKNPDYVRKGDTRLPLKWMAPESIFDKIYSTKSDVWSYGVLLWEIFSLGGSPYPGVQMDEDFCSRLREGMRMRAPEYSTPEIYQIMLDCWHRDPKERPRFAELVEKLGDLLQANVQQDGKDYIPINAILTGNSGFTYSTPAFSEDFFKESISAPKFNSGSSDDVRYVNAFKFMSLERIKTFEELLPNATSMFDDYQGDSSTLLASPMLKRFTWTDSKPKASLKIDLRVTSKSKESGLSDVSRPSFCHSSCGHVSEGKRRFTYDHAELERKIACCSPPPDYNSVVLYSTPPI
T8 sequence (P14616 27-1297): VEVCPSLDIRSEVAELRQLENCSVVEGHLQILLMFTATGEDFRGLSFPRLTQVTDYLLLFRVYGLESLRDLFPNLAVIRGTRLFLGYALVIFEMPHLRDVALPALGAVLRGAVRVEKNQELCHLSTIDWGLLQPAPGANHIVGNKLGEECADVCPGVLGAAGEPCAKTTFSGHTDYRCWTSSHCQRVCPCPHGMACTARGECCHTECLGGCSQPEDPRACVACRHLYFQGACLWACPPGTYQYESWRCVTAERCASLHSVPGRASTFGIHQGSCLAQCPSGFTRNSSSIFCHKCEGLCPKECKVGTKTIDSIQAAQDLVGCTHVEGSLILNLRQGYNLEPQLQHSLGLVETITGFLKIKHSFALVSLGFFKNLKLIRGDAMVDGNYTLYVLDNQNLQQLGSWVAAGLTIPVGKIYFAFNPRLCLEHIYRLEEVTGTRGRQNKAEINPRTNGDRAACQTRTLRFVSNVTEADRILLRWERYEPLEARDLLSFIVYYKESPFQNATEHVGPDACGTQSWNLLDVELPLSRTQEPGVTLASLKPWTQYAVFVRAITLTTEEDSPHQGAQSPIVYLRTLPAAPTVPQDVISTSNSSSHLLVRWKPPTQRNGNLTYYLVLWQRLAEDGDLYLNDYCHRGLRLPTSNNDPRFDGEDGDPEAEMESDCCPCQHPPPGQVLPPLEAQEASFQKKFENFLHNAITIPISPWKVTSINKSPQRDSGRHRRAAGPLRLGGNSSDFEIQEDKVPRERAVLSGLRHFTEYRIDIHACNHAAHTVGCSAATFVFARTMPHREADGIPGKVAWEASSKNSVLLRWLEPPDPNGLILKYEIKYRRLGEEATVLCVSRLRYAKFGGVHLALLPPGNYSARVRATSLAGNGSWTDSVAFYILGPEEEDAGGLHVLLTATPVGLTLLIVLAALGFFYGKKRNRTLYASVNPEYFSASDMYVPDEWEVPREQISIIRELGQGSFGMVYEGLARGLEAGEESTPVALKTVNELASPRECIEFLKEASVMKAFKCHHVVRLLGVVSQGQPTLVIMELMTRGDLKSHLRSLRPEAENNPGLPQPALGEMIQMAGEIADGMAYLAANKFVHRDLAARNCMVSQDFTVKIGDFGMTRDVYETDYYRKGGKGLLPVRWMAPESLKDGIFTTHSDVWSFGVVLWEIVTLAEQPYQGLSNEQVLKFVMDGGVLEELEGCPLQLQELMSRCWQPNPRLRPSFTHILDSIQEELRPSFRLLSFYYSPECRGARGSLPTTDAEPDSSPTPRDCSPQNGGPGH

Compound	remaining binding at 1 µM [1]	remaining binding at 1 µM [2]	remaining binding at 1 µM [3]	remaining binding at 1 µM [4]	remaining binding at 1 µM [5]	remaining binding at 1 µM [6]	remaining binding at 1 µM [7]	remaining binding at 1 µM [8]	remaining binding at 1 µM [9]	remaining binding at 1 µM [10]	remaining binding at 1 µM [11]	remaining binding at 1 µM [12]	remaining binding at 1 µM [13]	remaining binding at 1 µM [14]	remaining binding at 1 µM [15]	remaining binding at 1 µM [16]	remaining binding at 1 µM [17]
CNc1c(-c2cnn([C@H]3CCN(C(C)=O)C[C@@H]3F)c2)cnc2[nH]cc(Cl)c12 [Compound 77, 1-((3S,4S)-4-(4-(3-chloro-4-(methylamino)-1H-pyrrolo[2,3-b]pyridin-5-yl)-1H-pyrazol-1-yl)-3-fluoropiperidin-1-yl)ethan-1-one]	93%	77%	77%	92%	50%	95%	34%	21%	566%	92%	100%	92%	100%	100%	68%	72%	72%
CNc1c(-c2ccc(C(=O)N3CCC(N4CCOCC4)CC3)cc2)cnc2[nH]cc(Cl)c12 [Compound 96, (4-(3-chloro-4-(methylamino)-1H-pyrrolo[2,3-b]pyridin-5-yl)phenyl)(4-morpholinopiperidin-1-yl)methanone]	81%	91%	84%	100%	64%	100%	54%	33%	64%	96%	100%	88%	100%	98%	82%	94%	82%
O=C(c1ccc(-c2cnc3[nH]cc(Cl)c3c2NC2CCCC2)cc1)N1CCC(N2CCOCC2)CC1 [Compound 101, (4-(3-chloro-4-(cyclopentylamino)-1H-pyrrolo[2,3-b]pyridin-5-yl)phenyl)(4-morpholinopiperidin-1-yl)methanone]	82%	100%	100%	99%	92%	10%	100%	51%	80%	84%	100%	100%	100%	93%	95%	54%	100%
